Experimental data from patent EP2758383B1, “AROMATIC AMIDOTHIAZOLES, COSMETIC AND DERMATOLOGICAL PREPARATIONS CONTAINING THEM, AND THEIR USE FOR THE TREATMENT AND PROPHYLAXIS OF UNWANTED PIGMENTATION OF THE SKIN” (priority 2011, dated 2013).

target: T1, humane Tyrosinase (Homo sapiens, UniProt P14679); assay: Enzyme test: conversion of L-DOPA to L-dopaquinone by human tyrosinase, MBTH detection, absorption at 490 nm; format: biochemical; settings: Konzentration 10 µg/mL; substrate L-DOPA; read-out: Inhibition (% der Kontrolle)
T1 sequence (P14679 19-529): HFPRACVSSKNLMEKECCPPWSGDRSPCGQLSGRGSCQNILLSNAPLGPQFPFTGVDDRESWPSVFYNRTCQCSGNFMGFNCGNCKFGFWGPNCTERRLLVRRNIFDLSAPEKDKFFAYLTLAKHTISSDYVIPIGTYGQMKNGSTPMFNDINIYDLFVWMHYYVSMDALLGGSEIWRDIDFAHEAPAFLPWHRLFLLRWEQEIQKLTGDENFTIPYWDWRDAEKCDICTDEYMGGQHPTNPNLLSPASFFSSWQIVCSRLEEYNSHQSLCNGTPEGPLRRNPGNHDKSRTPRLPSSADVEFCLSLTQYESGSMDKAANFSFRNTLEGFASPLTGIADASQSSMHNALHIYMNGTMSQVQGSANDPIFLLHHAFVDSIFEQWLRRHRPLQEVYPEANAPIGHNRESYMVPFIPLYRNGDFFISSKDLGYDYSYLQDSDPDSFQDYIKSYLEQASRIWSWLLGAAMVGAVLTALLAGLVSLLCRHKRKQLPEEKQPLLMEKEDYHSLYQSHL
Source text: Die Wirksamkeit der Thiazole wurde mit einem Enzymtest belegt, in der Umsatz von L-DOPA zu L-Dopachinon durch eine humane Tyrosinase gemessen wurde.

Row | inhibition at 10 µg/mL [%] | SMILES
1 | 27 | CC(C)(C)c1ccc(C(=O)Nc2nc(-c3ccc(O)cc3O)cs2)cc1 [4-(tert-butyl)-N-(4-(2,4-dihydroxyphenyl)thiazol-2-yl)benzamid]
2 | 92 | CC(=O)c1ccc(C(=O)Nc2nc(-c3ccc(O)cc3O)cs2)cc1 [4-acetyl-N-(4-(2,4-dihydroxyphenyl)thiazol-2-yl)benzamid]
3 | 96 | N#Cc1ccc(C(=O)Nc2nc(-c3ccc(O)cc3O)cs2)cc1 [4-cyano-N-(4-(2,4-dihydroxyphenyl)thiazol-2-yl)benzamid]
4 | 99 | O=C(Nc1nc(-c2ccc(O)cc2O)cs1)c1ccc(CO)cc1 [N-(4-(2,4-dihydroxyphenyl)thiazol-2-yl)-4-(hydroxymethyl)benzamid]
5 | 98 | O=C(Nc1nc(-c2ccc(O)cc2O)cs1)c1ccc(CO)nc1 [N-(4-(2,4-dihydroxyphenyl)thiazol-2-yl)-6-(hydroxymethyl)nicotinamid]
6 | 98 | O=C(Nc1nc(-c2ccc(O)cc2O)cs1)c1ccccc1 [N-(4-(2,4-dihydroxyphenyl)thiazol-2-yl)benzamid]
7 | 92 | O=C(Nc1nc(-c2ccc(O)cc2O)cs1)c1ccc2c(c1)OCO2 [N-(4-(2,4-dihydroxyphenyl)thiazol-2-yl)benzo[d][1,3]dioxole-5-carboxamide]
8 | 82 | O=C(Nc1nc(-c2ccc(O)cc2O)cs1)c1ccccn1 [N-(4-(2,4-dihydroxyphenyl)thiazol-2-yl)picolinamid]
9 | 16 | c1ccc(Nc2nc(-c3ccncc3)cs2)nc1 [N-(pyridin-2-yl)-4-(pyridin-4-yl)thiazol-2-amin, reference compound]
10 | 13 | C=CCN(C1=NC(C)(C)C(=C)S1)c1ccc(C)cc1C [N-allyl-N-(2,4-dimethylphenyl)-4,4-dimethyl-5-methylene-4,5-dihydrothiazol-2-amin, reference compound]
11 | 13 | CN(c1ccccc1)c1nc(-c2ccncc2)cs1 [N-methyl-N-phenyl-4-(pyridin-4-yl)thiazol-2-amin, reference compound]

same assay, conditions: read-out: Inhibition (% der Kontrolle)

Row | SMILES | inhibition at 10 µg/mL [%]
12 | CC(C)(O)c1ccc(C(=O)Nc2nc(-c3ccc(O)cc3O)cs2)cc1 [N-(4-(2,4-dihydroxyphenyl)thiazol-2-yl)-4-(2-hydroxypropan-2-yl)benzamid] | 96
